Laboratory results from PMC6934184, “Selective DNA-PKcs inhibition extends the therapeutic index of localized radiotherapy and chemotherapy” (The Journal of Clinical Investigation, 2019).

Target: T1, KIT Y823D (Homo sapiens, UniProt P10721, Y823D)
T1 construct: purchased Thermo Fisher Scientific (Life Technologies) SelectScreen
Experiment: SelectScreen LanthaScreen
Assay type: binding
Details: read-out: % displacement
Method in brief: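 SelectScreen broad panel; activity (Z'LYTE, Adapta) plus binding formats. ATP: Km app for CSF1R Z'LYTE; 10 for CAMK1 Adapta. Readout = % per kinase.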

T1 sequence (P10721 26-976 Y823D): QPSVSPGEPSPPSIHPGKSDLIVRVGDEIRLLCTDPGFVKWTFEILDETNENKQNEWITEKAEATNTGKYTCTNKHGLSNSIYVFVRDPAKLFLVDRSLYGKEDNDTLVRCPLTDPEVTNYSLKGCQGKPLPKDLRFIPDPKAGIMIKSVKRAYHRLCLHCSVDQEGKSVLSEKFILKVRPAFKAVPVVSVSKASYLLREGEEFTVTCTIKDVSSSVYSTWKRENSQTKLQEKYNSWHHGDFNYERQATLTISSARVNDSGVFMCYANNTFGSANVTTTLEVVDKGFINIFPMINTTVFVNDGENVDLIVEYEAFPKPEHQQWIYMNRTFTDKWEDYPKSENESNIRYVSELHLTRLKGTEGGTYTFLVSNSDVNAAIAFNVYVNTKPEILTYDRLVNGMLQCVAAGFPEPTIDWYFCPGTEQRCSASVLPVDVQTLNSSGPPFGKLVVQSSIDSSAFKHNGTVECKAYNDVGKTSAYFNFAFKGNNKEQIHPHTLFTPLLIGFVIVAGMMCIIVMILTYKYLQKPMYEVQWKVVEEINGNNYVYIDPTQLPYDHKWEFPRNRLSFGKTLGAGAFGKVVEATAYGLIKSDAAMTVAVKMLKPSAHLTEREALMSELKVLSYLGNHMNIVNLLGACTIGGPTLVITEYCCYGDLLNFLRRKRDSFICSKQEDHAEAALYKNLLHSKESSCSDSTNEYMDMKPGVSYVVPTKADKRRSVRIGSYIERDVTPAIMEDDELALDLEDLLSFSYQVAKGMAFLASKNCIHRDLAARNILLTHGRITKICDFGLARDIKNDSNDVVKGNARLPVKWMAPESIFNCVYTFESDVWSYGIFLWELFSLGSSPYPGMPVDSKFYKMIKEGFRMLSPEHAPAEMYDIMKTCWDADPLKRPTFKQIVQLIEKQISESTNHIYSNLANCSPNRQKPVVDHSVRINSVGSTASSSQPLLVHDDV

SMILES: CN(C(=O)CN1CCOCC1)c1ccc2sc3c(-c4cccc5c(=O)cc(N6CC7CCC(C6)O7)oc45)cccc3c2c1 [NU5455]
- inhibition at 1 µM: 5.6%
